Experimental data taken from ChEMBL document CHEMBL1201862, “PubChem BioAssay data set” (2004).
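How tested: cells in 96-well plates exposed to compound for 48 hours at five concentrations. At the GI50, growth is halved.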 Active and inactive are the calls of the source. Rule as the data show it: active = GI50 up to about 1.1 µM and inactive = higher.

Assays:
Assay in all cases: inhibition of tumour cell growth, NCI panel, 48 h
[1] = tested on: COLO 205
[2] = tested on: KM12
[3] = tested on: UACC-62
[4] = tested on: NCI-H460
[5] = tested on: ACHN
[6] = tested on: NCI-H23
[7] = tested on: SNB-19
[8] = tested on: SK-MEL-2
[9] = tested on: HOP-92
[10] = tested on: MCF7
[11] = tested on: HCT-116
[12] = tested on: MDA-MB-435
[13] = tested on: SK-OV-3
[14] = tested on: LOX IMVI
[15] = tested on: M14
[16] = tested on: HCT-15
[17] = tested on: Malme-3M
[18] = tested on: HL-60
[19] = tested on: EKVX
[20] = tested on: OVCAR-8

Row | SMILES | GI50 [1] | GI50 [2] | GI50 [3] | GI50 [4] | GI50 [5] | GI50 [6] | GI50 [7] | GI50 [8] | GI50 [9] | GI50 [10] | GI50 [11] | GI50 [12] | GI50 [13] | GI50 [14] | GI50 [15] | GI50 [16] | GI50 [17] | GI50 [18] | GI50 [19] | GI50 [20]
1 | CSc1ncnc2c1cnn2Cc1cn(COCCO)nn1 | 33.9 µM (inactive) | 23.2 µM (inactive) | 84.3 µM (inactive) | 32 µM (inactive) | > 100 µM (inactive) | 49.7 µM (inactive) | > 100 µM (inactive) | 39 µM (inactive) | > 100 µM (inactive) | 43.3 µM (inactive) | 45.4 µM (inactive) | 11.1 µM (inactive) | 47.6 µM (inactive) | 80.7 µM (inactive) | > 100 µM (inactive) | > 100 µM | > 100 µM (inactive) | 40 µM (inactive) | – | –
2 | CCn1c(-c2ccc(OC)cc2)nc2c1C(=O)c1ccccc1C2=O | > 100 µM (inactive) | > 100 µM (inactive) | > 100 µM (inactive) | > 100 µM (inactive) | > 100 µM (inactive) | > 100 µM (inactive) | > 100 µM (inactive) | – | > 100 µM (inactive) | > 100 µM (inactive) | > 100 µM (inactive) | > 100 µM (inactive) | > 100 µM (inactive) | – | > 100 µM (inactive) | > 100 µM | > 100 µM (inactive) | > 100 µM (inactive) | > 100 µM (inactive) | > 100 µM (inactive)
3 | C=C(C)CCC1CCCCC(CN(C)C)C1=O (stereo not given) | > 100 µM (inactive) | > 100 µM (inactive) | > 100 µM (inactive) | > 100 µM (inactive) | > 100 µM (inactive) | > 100 µM (inactive) | > 100 µM (inactive) | > 100 µM (inactive) | > 100 µM (inactive) | 75 µM (inactive) | > 100 µM (inactive) | > 100 µM (inactive) | > 100 µM (inactive) | > 100 µM (inactive) | > 100 µM (inactive) | > 100 µM | – | > 100 µM (inactive) | > 100 µM (inactive) | > 100 µM (inactive)
4 | CSC1=N/C(=C\c2cccs2)C(=O)N1CN1CCOCC1 | 45.5 µM (inactive) | 57.7 µM (inactive) | 42.4 µM (inactive) | – | 37.2 µM (inactive) | > 100 µM (inactive) | 45.6 µM (inactive) | 52.4 µM (inactive) | 4.82 µM (inactive) | 32.2 µM (inactive) | 31.3 µM (inactive) | > 100 µM (inactive) | > 100 µM (inactive) | 33.1 µM (inactive) | 61.7 µM (inactive) | 38.1 µM | 44.7 µM (inactive) | 0.0465 µM (active) | 40.6 µM (inactive) | 28.8 µM (inactive)
5 | COc1cc(NCc2ccc3n2-c2ccccc2OC3)cc(OC)c1OC | 12.9 µM (inactive) | 40.7 µM (inactive) | 19 µM (inactive) | 30.1 µM (inactive) | 30.1 µM (inactive) | 35.2 µM (inactive) | 69 µM (inactive) | 20 µM (inactive) | 11 µM (inactive) | 14.1 µM (inactive) | 27.8 µM (inactive) | 14 µM (inactive) | – | 10.4 µM (inactive) | 31 µM (inactive) | 29.9 µM | 15.1 µM (inactive) | 17.7 µM (inactive) | 9.71 µM (inactive) | 31 µM (inactive)
6 | CC1(C)CC2C=C(C=O)C3(C=O)CC3(C)C2C1 (stereo not given) | 1.89 µM (inactive) | 4.39 µM (inactive) | 5.46 µM (inactive) | 4.44 µM (inactive) | 1.49 µM (inactive) | 1.83 µM (inactive) | 11.8 µM (inactive) | 2.07 µM (inactive) | 1.95 µM (inactive) | 1.34 µM (inactive) | 0.847 µM (active) | 1.75 µM (inactive) | 3.43 µM (inactive) | 1.34 µM (inactive) | 2.29 µM (inactive) | 1.64 µM | – | 0.0333 µM (active) | 3.4 µM (inactive) | 1.95 µM (inactive)
7 | CCOC(=O)c1sc(N/N=C2\NC(=O)/C(=C/c3ccc([N+](=O)[O-])cc3)S2)nc1C | 25.1 µM (inactive) | 15.5 µM (inactive) | 22.2 µM (inactive) | 21.5 µM (inactive) | 21.8 µM (inactive) | 24.4 µM (inactive) | 32.6 µM (inactive) | 24.8 µM (inactive) | 16.9 µM (inactive) | 22.3 µM (inactive) | 16.8 µM (inactive) | 23.8 µM (inactive) | 31.4 µM (inactive) | 19.8 µM (inactive) | 28.8 µM (inactive) | 19.7 µM | – | 22.8 µM (inactive) | 15.7 µM (inactive) | 22.4 µM (inactive)
8 | O=C(/C=C/c1ccc(O)c(O)c1)NC(COC(=O)/C=C/c1ccc(O)c(O)c1)C(=O)O (stereo not given) | > 100 µM (inactive) | > 100 µM (inactive) | > 100 µM (inactive) | > 100 µM (inactive) | > 100 µM (inactive) | > 100 µM (inactive) | > 100 µM (inactive) | > 100 µM (inactive) | > 100 µM (inactive) | > 100 µM (inactive) | > 100 µM (inactive) | > 100 µM (inactive) | > 100 µM (inactive) | > 100 µM (inactive) | > 100 µM (inactive) | > 100 µM | > 100 µM (inactive) | – | > 100 µM (inactive) | > 100 µM (inactive)
